From patent publication US20090311217A1, “3-SUBSTITUTED-1H-INDOLE COMPOUNDS, THEIR USE AS MTOR KINASE AND PI3 KINASE INHIBITORS, AND THEIR SYNTHESES” (priority 2008, published 2009)
pIC50: −log10 of the molar value. Read-outs that look alike come from different tables or passages of the source.

Target: PI3K-alpha (Homo sapiens, UniProt P42336)
Assay: PI3K-alpha fluorescence polarization assay
Assay type: biochemical

Sequence of PI3K-alpha (P42336 whole entry, species assumed): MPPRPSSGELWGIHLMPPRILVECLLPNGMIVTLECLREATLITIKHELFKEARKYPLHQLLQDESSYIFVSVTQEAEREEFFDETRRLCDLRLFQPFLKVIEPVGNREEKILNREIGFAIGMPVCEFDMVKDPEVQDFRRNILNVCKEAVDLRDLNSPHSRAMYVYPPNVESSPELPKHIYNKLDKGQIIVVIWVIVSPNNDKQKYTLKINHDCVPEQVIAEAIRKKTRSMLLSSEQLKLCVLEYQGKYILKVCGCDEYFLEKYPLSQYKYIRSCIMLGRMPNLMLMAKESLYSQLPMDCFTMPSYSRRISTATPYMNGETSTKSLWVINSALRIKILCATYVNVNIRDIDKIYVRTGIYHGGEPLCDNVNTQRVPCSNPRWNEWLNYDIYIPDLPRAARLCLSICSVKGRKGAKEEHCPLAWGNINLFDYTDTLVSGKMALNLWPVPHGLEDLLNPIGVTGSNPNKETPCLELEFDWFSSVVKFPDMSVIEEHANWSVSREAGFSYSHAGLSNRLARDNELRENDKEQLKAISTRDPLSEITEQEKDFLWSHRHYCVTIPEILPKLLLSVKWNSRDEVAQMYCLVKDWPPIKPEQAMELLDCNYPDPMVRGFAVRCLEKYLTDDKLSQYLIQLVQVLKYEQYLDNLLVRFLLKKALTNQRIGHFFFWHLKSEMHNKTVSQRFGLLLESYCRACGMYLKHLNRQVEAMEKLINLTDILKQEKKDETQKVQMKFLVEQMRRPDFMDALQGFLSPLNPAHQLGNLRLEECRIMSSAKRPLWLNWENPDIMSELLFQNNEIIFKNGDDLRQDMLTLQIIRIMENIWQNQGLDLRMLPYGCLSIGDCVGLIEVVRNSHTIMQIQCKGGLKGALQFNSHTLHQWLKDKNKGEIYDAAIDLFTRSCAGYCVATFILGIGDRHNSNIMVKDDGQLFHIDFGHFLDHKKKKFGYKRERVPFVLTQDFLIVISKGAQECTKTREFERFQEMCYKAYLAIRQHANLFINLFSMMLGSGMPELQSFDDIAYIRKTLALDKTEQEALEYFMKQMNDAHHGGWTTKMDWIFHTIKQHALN
Sequence of PI3K-alpha (P27986 whole entry partner, species assumed): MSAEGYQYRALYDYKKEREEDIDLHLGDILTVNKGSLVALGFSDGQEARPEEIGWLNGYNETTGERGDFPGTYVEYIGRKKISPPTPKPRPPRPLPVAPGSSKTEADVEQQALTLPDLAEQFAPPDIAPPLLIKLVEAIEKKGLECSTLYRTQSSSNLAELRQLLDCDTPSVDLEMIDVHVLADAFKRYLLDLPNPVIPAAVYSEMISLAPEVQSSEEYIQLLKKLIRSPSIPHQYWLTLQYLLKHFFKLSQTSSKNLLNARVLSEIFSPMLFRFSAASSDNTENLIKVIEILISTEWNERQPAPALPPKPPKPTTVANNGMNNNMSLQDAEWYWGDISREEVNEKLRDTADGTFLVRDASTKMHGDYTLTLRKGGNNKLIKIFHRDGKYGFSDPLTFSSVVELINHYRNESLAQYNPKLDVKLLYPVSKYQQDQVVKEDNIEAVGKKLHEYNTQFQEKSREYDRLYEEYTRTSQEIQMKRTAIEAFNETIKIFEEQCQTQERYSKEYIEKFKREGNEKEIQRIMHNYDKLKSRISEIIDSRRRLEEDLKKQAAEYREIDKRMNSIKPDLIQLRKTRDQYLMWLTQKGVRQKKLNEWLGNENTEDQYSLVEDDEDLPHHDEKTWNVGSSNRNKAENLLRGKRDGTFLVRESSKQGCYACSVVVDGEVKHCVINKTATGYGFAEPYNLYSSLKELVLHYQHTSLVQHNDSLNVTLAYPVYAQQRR

Work on `O=C1/C(=C/c2c(-c3ccc(F)cc3)[nH]c3ccccc23)Oc2cc(O)ccc21` [Example 28, (2Z)-2-{[2-(4-fluorophenyl)-1H-indol-3-yl]methylene}-6-hydroxy-1-benzofuran-3(2H)-one] yielded a pIC50 (read-out: PI3Kα Avg. IC50) of 5.62.

Molecule `O=C1/C(=C/c2cn(Cc3ccccc3)c3ccccc23)Oc2ccccc21` [Example 25, (2Z)-2-[(1-benzyl-1H-indol-3-yl)methylene]-1-benzofuran-3(2H)-one] has a pIC50 (read-out: PI3Kα Avg. IC50) of less than 5.00.

With `Cc1ccc2c(c1)C(=O)C(=Cc1c(-c3ccc(F)cc3)[nH]c3ccccc13)S2` [Example 297, 2-{[2-(4-fluorophenyl)-1H-indol-3-yl]methylene}-5-methyl-1-benzothiophen-3(2H)-one] the pIC50 (read-out: PI3Kα Avg. IC50) was less than 5.00.

For `Cc1[nH]c2ccc([N+](=O)[O-])cc2c1/C=C1\Oc2cc(O)ccc2C1=O` [Example 29, (2Z)-6-hydroxy-2-[(2-methyl-5-nitro-1H-indol-3-yl)methylene]-1-benzofuran-3(2H)-one], the pIC50 (read-out: PI3Kα Avg. IC50) was less than 5.00.

`Cn1cc(/C=C2\Oc3c(ccc(O)c3O)C2=O)c2ccccc21` [Example 57, (2Z)-6,7-dihydroxy-2-[(1-methyl-1H-indol-3-yl)methylene]-1-benzofuran-3(2H)-one] gave a pIC50 (read-out: PI3Kα Avg. IC50) of 5.35.

`Cc1[nH]c2ccccc2c1/C=C1\Oc2ccccc2C1=O` [Example 21, (2Z)-2-[(2-methyl-1H-indol-3-yl)methylene]-1-benzofuran-3(2H)-one] gave a pIC50 (read-out: PI3Kα Avg. IC50) of less than 5.00.

`O=C1/C(=C/c2c(-c3ccc4ccccc4c3)[nH]c3ccccc23)Oc2ccccc21` [Example 18, (2Z)-2-{[2-(2-naphthyl)-1H-indol-3-yl]methylene}-1-benzofuran-3(2H)-one] gave a pIC50 (read-out: PI3Kα Avg. IC50) of 5.59.

With `Cc1[nH]c2ccccc2c1/C=C1\Sc2ccccc2C1=O` [Example 272, (2Z)-2-[(2-methyl-1H-indol-3-yl)methylene]-1-benzothiophen-3(2H)-one] the pIC50 (read-out: PI3Kα Avg. IC50) was 5.88.

For `Cc1ccc2c(/C=C3\Oc4cc(O)ccc4C3=O)c[nH]c2c1` [Example 31, (2Z)-6-hydroxy-2-[(6-methyl-1H-indol-3-yl)methylene]-1-benzofuran-3(2H)-one], the pIC50 (read-out: PI3Kα Avg. IC50) was 5.02.

For `O=C1/C(=C/c2c(-c3ccc(F)cc3)[nH]c3ccccc23)Sc2ccc(Cl)cc21` [Example 286, (2Z)-5-chloro-2-{[2-(4-fluorophenyl)-1H-indol-3-yl]methylene}-1-benzothiophen-3(2H)-one], the pIC50 (read-out: PI3Kα Avg. IC50) was less than 5.00.

For `Cc1ccc2c(c1)C(=O)C(=Cc1cn(C)c3ccccc13)S2` [Example 299, 5-methyl-2-[(1-methyl-1H-indol-3-yl)methylene]-1-benzothiophen-3(2H)-one], the pIC50 (read-out: PI3Kα Avg. IC50) was less than 5.00.

For `COc1cccc2c1O/C(=C\c1c(C)[nH]c3ccc([N+](=O)[O-])cc13)C2=O` [Example 38, (2Z)-7-methoxy-2-[(2-methyl-5-nitro-1H-indol-3-yl)methylene]-1-benzofuran-3(2H)-one], the pIC50 (read-out: PI3Kα Avg. IC50) was less than 5.00.

For `COc1ccc2c(c1)c(/C=C1\Oc3ccc(Br)cc3C1=O)cn2CCCN(C)C` [Compound 516, (2Z)-5-bromo-2-({1-[3-(dimethylamino)propyl]-5-methoxy-1H-indol-3-yl}methylene)-1-benzofuran-3(2H)-one], the pIC50 (read-out: PI3Kα Avg. IC50) was 5.01.

In the case of `COc1ccc2c(c1)c(/C=C1\Oc3cc(OC(=O)N(C)c4ccccc4)ccc3C1=O)c(C)n2CCN1CCN(C)CC1` [Compound 558, (2Z)-2-({5-methoxy-2-methyl-1-[2-(4-methylpiperazin-1-yl)ethyl]-1H-indol-3-yl}methylene)-3-oxo-2,3-dihydro-1-benzofuran-6-yl methyl(phenyl)carbamate], the pIC50 (PI3Kα Avg. IC50) was less than 5.00.

`COc1cccc2c1O/C(=C\c1cn(Cc3ccccc3)c3ccccc13)C2=O` [Example 42, (2Z)-2-[(1-benzyl-1H-indol-3-yl)methylene]-7-methoxy-1-benzofuran-3(2H)-one] showed a pIC50 (read-out: PI3Kα Avg. IC50) of less than 5.00.

With `Cn1c(-c2ccccc2)c(/C=C2\Sc3ccccc3C2=O)c2ccccc21` [Example 275, (2Z)-2-[(1-methyl-2-phenyl-1H-indol-3-yl)methylene]-1-benzothiophen-3(2H)-one] the pIC50 (read-out: PI3Kα Avg. IC50) was 5.55.

Work on `Cc1c(C=C2Oc3cc(O)cc(O)c3C2=O)c2cc(F)ccc2n1C` [Example 235, 2-[(5-fluoro-1,2-dimethyl-1H-indol-3-yl)methylene]-4,6-dihydroxy-1-benzofuran-3(2H)-one] yielded a pIC50 (read-out: PI3Kα Avg. IC50) of 5.39.

`O=C1/C(=C/c2c[nH]c3ccc(F)cc23)Oc2c1ccc(O)c2O` [Example 64, (2Z)-2-[(5-fluoro-1H-indol-3-yl)methylene]-6,7-dihydroxy-1-benzofuran-3(2H)-one] showed a pIC50 (read-out: PI3Kα Avg. IC50) of 5.77.

`O=C1/C(=C/c2c(-c3ccc(Cl)cc3)[nH]c3ccccc23)Sc2ccc(Cl)cc21` [Example 284, (2Z)-5-chloro-2-{[2-(4-chlorophenyl)-1H-indol-3-yl]methylene}-1-benzothiophen-3(2H)-one] gave a pIC50 (read-out: PI3Kα Avg. IC50) of less than 5.00.

`O=C1C(=Cc2c[nH]c3ccccc23)Oc2ccccc21` [Example 1, 2-(1H-indol-3-ylmethylene)-1-benzofuran-3(2H)-one] gave a pIC50 (read-out: PI3Kα Avg. IC50) of less than 5.00.

`COc1cccc2c1O/C(=C\c1c(-c3ccc4ccccc4c3)[nH]c3ccccc13)C2=O` [Example 36, (2Z)-7-methoxy-2-{[2-(2-naphthyl)-1H-indol-3-yl]methylene}-1-benzofuran-3(2H)-one] showed a pIC50 (read-out: PI3Kα Avg. IC50) of less than 5.00.

`COc1cccc2c1OC(=Cc1c[nH]c3ccccc13)C2=O` [Example 9, 2-(1H-indol-3-ylmethylene)-7-methoxy-1-benzofuran-3(2H)-one] gave a pIC50 (read-out: PI3Kα Avg. IC50) of less than 5.00.

`COc1cccc2c1OC(=Cc1c(-c3ccccc3)n(C)c3ccccc13)C2=O` [Example 11, 7-methoxy-2-[(1-methyl-2-phenyl-1H-indol-3-yl)methylene]-1-benzofuran-3(2H)-one] was tested, and the pIC50 (read-out: PI3Kα Avg. IC50) was less than 5.00.

`Cc1[nH]c2ccccc2c1/C=C1\Oc2cc(O)ccc2C1=O` [Example 30, (2Z)-6-hydroxy-2-[(2-methyl-1H-indol-3-yl)methylene]-1-benzofuran-3(2H)-one] showed a pIC50 (read-out: PI3Kα Avg. IC50) of 4.89.

`COc1cccc2c1OC(=Cc1c(-c3ccccc3)[nH]c3ccccc13)C2=O` [Example 10, 7-methoxy-2-[(2-phenyl-1H-indol-3-yl)methylene]-1-benzofuran-3(2H)-one] showed a pIC50 (read-out: PI3Kα Avg. IC50) of less than 5.00.

Work on `Cc1ccc2c(c1)C(=O)/C(=C/c1c[nH]c3cc(C)ccc13)S2` [Example 292, (2Z)-5-methyl-2-[(6-methyl-1H-indol-3-yl)methylene]-1-benzothiophen-3(2H)-one] yielded a pIC50 (read-out: PI3Kα Avg. IC50) of less than 5.00.

In the case of `O=C1/C(=C/c2c[nH]c3ccc(Br)cc23)Oc2ccccc21` [Example 24, (2Z)-2-[(5-bromo-1H-indol-3-yl)methylene]-1-benzofuran-3(2H)-one], the pIC50 (read-out: PI3Kα Avg. IC50) was less than 5.00.

In the case of `Cn1cc(/C=C2\Sc3ccccc3C2=O)c2ccccc21` [Example 278, (2Z)-2-[(1-methyl-1H-indol-3-yl)methylene]-1-benzothiophen-3(2H)-one], the pIC50 (read-out: PI3Kα Avg. IC50) was 5.51.

For `O=C1/C(=C/c2c(-c3ccc(Cl)cc3)[nH]c3ccccc23)Oc2ccccc21` [Example 17, (2Z)-2-{[2-(4-chlorophenyl)-1H-indol-3-yl]methylene}-1-benzofuran-3(2H)-one], the pIC50 (read-out: PI3Kα Avg. IC50) was 5.60.

In the case of `O=C1/C(=C/c2c[nH]c3ccc(Br)cc23)Oc2cc(O)ccc21` [Example 32, (2Z)-2-[(5-bromo-1H-indol-3-yl)methylene]-6-hydroxy-1-benzofuran-3(2H)-one], the pIC50 (read-out: PI3Kα Avg. IC50) was 5.19.

Molecule `Cc1ccc2c(c1)C(=O)/C(=C/c1c[nH]c3ccccc13)S2` [Example 289, (2Z)-2-(1H-indol-3-ylmethylene)-5-methyl-1-benzothiophen-3(2H)-one] has a pIC50 (read-out: PI3Kα Avg. IC50) of 4.97.

`Cc1[nH]c2ccc([N+](=O)[O-])cc2c1/C=C1\Oc2ccccc2C1=O` [Example 20, (2Z)-2-[(2-methyl-5-nitro-1H-indol-3-yl)methylene]-1-benzofuran-3(2H)-one] showed a pIC50 (read-out: PI3Kα Avg. IC50) of less than 5.00.

Molecule `O=C1/C(=C/c2c(-c3ccc4ccccc4c3)[nH]c3ccccc23)Sc2ccccc21` [Example 276, (2Z)-2-{[2-(2-naphthyl)-1H-indol-3-yl]methylene}-1-benzothiophen-3(2H)-one] has a pIC50 (read-out: PI3Kα Avg. IC50) of less than 5.00.

For `COc1cccc2c1O/C(=C\c1c(C)[nH]c3ccccc13)C2=O` [Example 39, (2Z)-7-methoxy-2-[(2-methyl-1H-indol-3-yl)methylene]-1-benzofuran-3(2H)-one], the pIC50 (read-out: PI3Kα Avg. IC50) was less than 5.00.

Molecule `Cc1cccc2c1c(/C=C1\Oc3cc(O)cc(O)c3C1=O)c(-c1ccccn1)n2C` [Compound 477, (2Z)-2-[(1,4-dimethyl-2-pyridin-2-yl-1H-indol-3-yl)methylene]-4,6-dihydroxy-1-benzofuran-3(2H)-one] has a pIC50 (read-out: PI3Kα Avg. IC50) of 5.95.

In the case of `O=C1/C(=C/c2c[nH]c3ccc(OCc4ccccc4)cc23)Sc2ccc(Cl)cc21` [Example 288, (2Z)-2-{[5-(benzyloxy)-1H-indol-3-yl]methylene}-5-chloro-1-benzothiophen-3(2H)-one], the pIC50 (read-out: PI3Kα Avg. IC50) was less than 5.00.

Molecule `CNC(=O)Oc1ccc2c(c1)C(=O)/C(=C/c1cn(CCN3CCN(C)CC3)c3ccc(OC)cc13)O2` [Compound 546, (2Z)-2-({5-methoxy-1-[2-(4-methylpiperazin-1-yl)ethyl]-1H-indol-3-yl}methylene)-3-oxo-2,3-dihydro-1-benzofuran-5-yl methylcarbamate] has a pIC50 (PI3Kα Avg. IC50) of 6.20.

`Cc1ccc2c(c1)C(=O)/C(=C/c1c[nH]c3ccc(Br)cc13)S2` [Example 294, (2Z)-2-[(5-bromo-1H-indol-3-yl)methylene]-5-methyl-1-benzothiophen-3(2H)-one] was tested, and the pIC50 (read-out: PI3Kα Avg. IC50) was less than 5.00.

`COc1cccc2c1O/C(=C\c1c[nH]c3cc(C)ccc13)C2=O` [Example 40, (2Z)-7-methoxy-2-[(6-methyl-1H-indol-3-yl)methylene]-1-benzofuran-3(2H)-one] gave a pIC50 (read-out: PI3Kα Avg. IC50) of less than 5.00.

`O=C1/C(=C/c2c(-c3ccc(F)cc3)[nH]c3ccccc23)Oc2ccccc21` [Example 19, (2Z)-2-{[2-(4-fluorophenyl)-1H-indol-3-yl]methylene}-1-benzofuran-3(2H)-one] gave a pIC50 (read-out: PI3Kα Avg. IC50) of 5.70.

With `O=C1/C(=C/c2c(-c3ccc(Cl)cc3)[nH]c3ccccc23)Oc2cc(O)ccc21` [Example 26, (2Z)-2-{[2-(4-chlorophenyl)-1H-indol-3-yl]methylene}-6-hydroxy-1-benzofuran-3(2H)-one] the pIC50 (read-out: PI3Kα Avg. IC50) was 5.42.

`COc1cc(-c2ccncc2)c2c(c1)c(/C=C1\Oc3cc(O)ccc3C1=O)cn2CCCC#N` [Compound 500, 4-{3-[(Z)-(6-hydroxy-3-oxo-1-benzofuran-2(3H)-ylidene)methyl]-5-methoxy-7-pyridin-4-yl-1H-indol-1-yl}butanenitrile] showed a pIC50 (read-out: PI3Kα Avg. IC50) of 6.23.
